Experimental data published in patent US20240246937A1 (MERCK SHARP & DOHME LLC, priority 2021, published 2024).

These molecules were tested against recombinant IL4I1 (Homo sapiens (Human), UniProt Q96RQ9) (assay: IL4I1 Enzymatic Assay (Amplex Red/HRP coupled fluorescence detection of H2O2)). Settings: 240 min; recombinant IL4I1, four-hour pre-incubation with compound.
Type: biochemical
Method: Interleukin 4 inducible protein 1 (IL4I1) is an L-amino oxidase that catalyzes the oxidation of aromatic residues (Phe, Trp and Tyr): L-amino acid+H2O+O2→2-oxo acid+NH3+H2O2. Equal molar of H2O2 and the corresponding alpha-ketoacid are produced when IL4I1 and substrate are added. In this assay, the hydrogen peroxide generated by IL4I1 is then detected through a coupled reaction with Amplex® Red (10-acetyl-3,7-dihydroxyphenoxazine) and horseradish peroxidase (HRP) to produce resorufin product that could be detected in the form of fluorescence signals. The assessment of the inhibitory effect of small molecules (EC50) on IL4I1 is measured by the effectiveness of the compounds to inhibit the production of H2O2.
Using this assay, the potency (EC50) of each compound was determined from a ten-point (1:3 serial dilution) titration curve using the following outlined procedure. To each well of a black flat-bottom Greiner (Cat #781076) 384 well-plate, 25 nL of compound (0.1% DMSO in final assay volume of 25 μL) was dispensed, followed by the addition of 12.5 μL of 1× assay buffer (50 mM Hepes 7.0 and 0.005% Tween20 (Sigma, Cat #P8341; low peroxide grade)) containing 2 nM of recombinant IL4I1 (R&D Systems, Cat #5684-AO-020). Plates were placed in an ambient temperature humidified chamber for a four-hour pre-incubation with compound. Subsequently, each reaction was initiated by the addition of 12.5 μL 1× assay buffer containing 2 mM of each aromatic amino acids (Phe/Tyr/Trp), 0.1 mM Amplex Red and 2 U/mL of HRP. The final reaction in each well of 25 μL consisted of 1 nM of IL4I1, 1 mM of each residues (Phe, Tyr and Trp), 0.05 mM Amplex Red and 1 U/mL of HRP. It should be noted that the concentrations of Amplex Red and HRP used here were in excess such that the conversion of H2O2 to resorufin product occurred instantaneously and was non-rate limiting. Reactions were allowed to proceed for 120 minutes followed by fluorescence readout on a Spectramax with the following set parameters: 544 nm excitation/590 nm emission, 570 nm cutoff (EnVision is an alternative reader). Dose-response curves were generated by plotting percent effect (% product conversion; Y-axis) vs. Log10 compound concentrations (X-axis). EC50 values were calculated using a non-linear regression, four-parameters sigmoidal dose-response model and are shown in Potency Table 1.

Sequence of recombinant IL4I1 (Q96RQ9 22-567): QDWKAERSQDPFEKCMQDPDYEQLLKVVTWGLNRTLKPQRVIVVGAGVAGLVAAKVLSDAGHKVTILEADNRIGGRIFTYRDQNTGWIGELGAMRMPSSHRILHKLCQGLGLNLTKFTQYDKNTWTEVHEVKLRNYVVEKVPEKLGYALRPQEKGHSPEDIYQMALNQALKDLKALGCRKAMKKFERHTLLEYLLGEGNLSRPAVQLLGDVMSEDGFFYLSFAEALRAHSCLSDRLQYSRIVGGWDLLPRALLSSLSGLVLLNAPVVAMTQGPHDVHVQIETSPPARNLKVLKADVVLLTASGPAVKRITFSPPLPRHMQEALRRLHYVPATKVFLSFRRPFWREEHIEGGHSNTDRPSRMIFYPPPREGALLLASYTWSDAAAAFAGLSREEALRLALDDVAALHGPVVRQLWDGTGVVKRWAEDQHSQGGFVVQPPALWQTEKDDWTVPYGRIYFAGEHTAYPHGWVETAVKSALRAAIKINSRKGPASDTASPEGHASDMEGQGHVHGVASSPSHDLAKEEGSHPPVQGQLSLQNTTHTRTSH

| Structure (SMILES) | EC50 [nM] |
| --- | --- |
| O=c1c(=O)n(C2CCC2)ccn1Cc1cc(-c2cccc(F)c2)on1 [Example 54, 1-cyclobutyl-4-((5-(3-fluorophenyl)isoxazol-3-yl)methyl)-1,4-dihydropyrazine-2,3-dione] | 2 |
| O=c1c(=O)n(C2CCC2)ccn1Cc1cc(-c2ccc(F)cc2)on1 [Example 55, 1-cyclobutyl-4-((5-(4-fluorophenyl)isoxazol-3-yl)methyl)-1,4-dihydropyrazine-2,3-dione] | 1 |
| O=c1c(=O)n(C2CCC2)ccn1Cc1cc(-c2ccccc2F)on1 [Example 57, 1-cyclobutyl-4-((5-(2-fluorophenyl)isoxazol-3-yl)methyl)-1,4-dihydropyrazine-2,3-dione] | 3 |
| O=C1C(=O)N(C2CCCC2)CCN1Cc1cc(-c2ccccc2F)on1 [Example 60, 1-cyclopentyl-4-((5-(2-fluorophenyl)isoxazol-3-yl)methyl)piperazine-2,3-dione] | 10 |
| O=c1c(=O)n(C2CCCC2)ccn1Cc1cc(-c2ccccc2F)on1 [Example 61, 1-cyclopentyl-4-((5-(2-fluorophenyl)isoxazol-3-yl)methyl)-1,4-dihydropyrazine-2,3-dione] | 5 |
| O=C1C(=O)N(C23CC(C2)C3)CCN1Cc1ccc(-c2cccc(F)c2)nn1 [Example 65, 1-(bicyclo[1.1.1]pentan-1-yl)-4-((6-(3-fluorophenyl)pyridazin-3-yl)methyl)piperazine-2,3-dione] | 4 |
| O=C1C(=O)N(C23CC(C2)C3)CCN1Cc1ccc(-c2ccccc2F)nn1 [Example 66, 1-(bicyclo[1.1.1]pentan-1-yl)-4-((6-(2-fluorophenyl)pyridazin-3-yl)methyl)piperazine-2,3-dione] | 7 |
| O=c1c(=O)n(C23CC(C2)C3)ccn1Cc1nnc(-c2ccccc2F)s1 [Example 68, 1-(bicyclo[1.1.1]pentan-1-yl)-4-((5-(2-fluorophenyl)-1,3,4-thiadiazol-2-yl)methyl)-1,4-dihydropyrazine-2,3-dione] | 5 |
| O=C1C(=O)N(C2CCC2)CCN1Cc1ncc(-c2ccccc2)s1 [Example 69, 1-cyclobutyl-4-((5-phenylthiazol-2-yl)methyl)piperazine-2,3-dione] | 3 |
| O=C1C(=O)N(C2CCC2)CCN1Cc1cnc(-c2ccccc2)s1 [Example 70, 1-cyclobutyl-4-((2-phenylthiazol-5-yl)methyl)piperazine-2,3-dione] | 4 |
| O=C1C(=O)N(C2CCC2)CCN1Cc1cnc(-c2ccccc2F)cn1 [Example 73, 1-cyclobutyl-4-((5-(2-fluorophenyl)pyrazin-2-yl)methyl)piperazine-2,3-dione] | 9 |
| O=c1c(=O)n(C2CCC2)ccn1Cc1cnc(-c2ccccc2F)cn1 [Example 74, 1-cyclobutyl-4-((5-(2-fluorophenyl)pyrazin-2-yl)methyl)-1,4-dihydropyrazine-2,3-dione] | 5 |
| O=c1c(=O)n(C23CC(C2)C3)ccn1Cc1cnc(-c2ccccc2F)cn1 [Example 75, 1-(bicyclo[1.1.1]pentan-1-yl)-4-((5-(2-fluorophenyl)pyrazin-2-yl)methyl)-1,4-dihydropyrazine-2,3-dione] | 7 |
| O=C1C(=O)N(C23CC(C2)C3)CCN1Cc1cc(-c2cccc(F)c2)on1 [Example 76, 1-(bicyclo[1.1.1]pentan-1-yl)-4-((5-(3-fluorophenyl)isoxazol-3-yl)methyl)piperazine-2,3-dione] | 4 |
| O=c1c(=O)n(C23CC(C2)C3)ccn1Cc1cc(-c2ccccc2F)on1 [Example 77, 1-(bicyclo[1.1.1]pentan-1-yl)-4-((5-(2-fluorophenyl)isoxazol-3-yl)methyl)-1,4-dihydropyrazine-2,3-dione] | 3 |
| O=C1C(=O)N(C2CCC2)CCN1Cc1cnc(-c2ccccc2F)s1 [Example 78, 1-cyclobutyl-4-((2-(2-fluorophenyl)thiazol-5-yl)methyl)piperazine-2,3-dione] | 6 |
| O=C1C(=O)N(C2CCC2)CCN1Cc1cnc(-c2cccc(F)c2)s1 [Example 79, 1-cyclobutyl-4-((2-(3-fluorophenyl)thiazol-5-yl)methyl)piperazine-2,3-dione] | 5 |
| [2H]c1c([2H])c([2H])c(-c2ccc(CN3CCN(C4CCC4)C(=O)C3=O)nn2)c([2H])c1[2H] [Example 80, 1-cyclobutyl-4-((6-(phenyl-d5)pyridazin-3-yl)methyl)piperazine-2,3-dione] | 15 |
| O=C1C(=O)N(C2CCC2)CCN1Cc1ccc(-c2cc(Br)ccc2F)nn1 [Example 81, 1-((6-(5-bromo-2-fluorophenyl)pyridazin-3-yl)methyl)-4-cyclobutylpiperazine-2,3-dione] | 60 |
| CC1(n2ccn(Cc3nnc(-c4cccc(F)c4)s3)c(=O)c2=O)CCC1 [Example 82, 1-((5-(3-fluorophenyl)-1,3,4-thiadiazol-2-yl)methyl)-4-(1-methylcyclobutyl)-1,4-dihydropyrazine-2,3-dione] | 10 |
| CC1(n2ccn(Cc3nnc(-c4ccc(F)cc4)s3)c(=O)c2=O)CCC1 [Example 83, 1-((5-(4-fluorophenyl)-1,3,4-thiadiazol-2-yl)methyl)-4-(1-methylcyclobutyl)-1,4-dihydropyrazine-2,3-dione] | 8 |
| Cc1ccccc1-c1nnc(CN2CCN(C34CC(C3)C4)C(=O)C2=O)s1 [Example 84, 1-(bicyclo[1.1.1]pentan-1-yl)-4-((5-(o-tolyl)-1,3,4-thiadiazol-2-yl)methyl)piperazine-2,3-dione] | 13 |

Further lines, results first:

| EC50 [nM] | Structure (SMILES) |
| --- | --- |
| 8 | O=C1C(=O)N([C@H]2C[C@H]3C[C@H]3C2)CCN1Cc1ccc(-c2ccccc2F)nn1 [Example 51, 1-((1R,3r,5S)-bicyclo[3.1.0]hexan-3-yl)-4-((6-(2-fluorophenyl)pyridazin-3-yl)methyl)piperazine-2,3-dione] |
| 4 | O=c1c(=O)n(C2CCCC2)ccn1Cc1ccc(-c2ccccc2)nn1 [Example 52, 1-cyclopentyl-4-((6-phenylpyridazin-3-yl)methyl)-1,4-dihydropyrazine-2,3-dione] |
| 7 | O=c1c(=O)n(C2CCCC2)ccn1Cc1ccc(-c2ccccc2F)nn1 [Example 53, 1-cyclopentyl-4-((6-(2-fluorophenyl)pyridazin-3-yl)methyl)-1,4-dihydropyrazine-2,3-dione] |
| 1 | O=c1c(=O)n(C2CCC2)ccn1Cc1cc(-c2ccccc2)on1 [Example 56, 1-cyclobutyl-4-((5-phenylisoxazol-3-yl)methyl)-1,4-dihydropyrazine-2,3-dione] |
| 4 | O=c1c(=O)n([C@H]2C[C@H]3C[C@H]3C2)ccn1Cc1ccc(-c2ccccc2)nn1 [Example 58, 1-((cis)-bicyclo[3.1.0]hexan-3-yl)-4-((6-phenylpyridazin-3-yl)methyl)-1,4-dihydropyrazine-2,3-dione] |
| 5 | O=c1c(=O)n(C2CCCC2)ccn1Cc1ccc(-c2cccc(F)c2)nn1 [Example 59, 1-cyclopentyl-4-((6-(3-fluorophenyl)pyridazin-3-yl)methyl)-1,4-dihydropyrazine-2,3-dione] |
| 4 | O=C1C(=O)N([C@H]2C[C@H]3C[C@H]3C2)CCN1Cc1ccc(-c2ccccc2F)nn1 [Example 62, 1-((cis)-bicyclo[3.1.0]hexan-3-yl)-4-((6-(2-fluorophenyl)pyridazin-3-yl)methyl)piperazine-2,3-dione] |
| 3 | O=c1c(=O)n(C2CCC2)ccn1Cc1ccc(-c2cccc(F)c2)nn1 [Example 63, 1-cyclobutyl-4-((6-(3-fluorophenyl)pyridazin-3-yl)methyl)-1,4-dihydropyrazine-2,3-dione] |
| 4 | O=c1c(=O)n(C23CC(C2)C3)ccn1Cc1ccc(-c2cccc(F)c2)nn1 [Example 64, 1-(bicyclo[1.1.1]pentan-1-yl)-4-((6-(3-fluorophenyl)pyridazin-3-yl)methyl)-1,4-dihydropyrazine-2,3-dione] |
| 1 | O=c1c(=O)n([C@H]2C[C@H]3C[C@H]3C2)ccn1Cc1cc(-c2cccc(F)c2)on1 [Example 67, 1-((cis)-bicyclo[3.1.0]hexan-3-yl)-4-((5-(3-fluorophenyl)isoxazol-3-yl)methyl)-1,4-dihydropyrazine-2,3-dione] |
| 6 | O=c1c(=O)n(C2CCC2)ccn1Cc1ccc(-c2cccc(F)c2F)nn1 [Example 71, 1-cyclobutyl-4-((6-(2,3-difluorophenyl)pyridazin-3-yl)methyl)-1,4-dihydropyrazine-2,3-dione] |
| 2 | O=c1c(=O)n(C2CCC2)ccn1Cc1ccc(-c2ccccc2F)nc1 [Example 72, 1-cyclobutyl-4-((6-(2-fluorophenyl)pyridin-3-yl)methyl)-1,4-dihydropyrazine-2,3-dione] |
